Type in all cases: cell-based
One assay deals with T1, Kv1.2 potassium channel (Homo sapiens, UniProt P16389).
T1 construct: expressed in transfected cells
Kind of assay: Whole-cell patch-clamp assay for inhibitory activity against Kv1.2 (steady state current). Conditions: HEK293 cells stably expressing Kv1.2, patch-clamp, read-out: IC50 for inhibition of Kv1.2. How it is done:
(§1) HEK293 cells stably expressing Kv1.X (Kv1.1, Kv1.2, Kv1.3, Kv1.4, Kv1.5) potassium channels were cultured in DMEM medium containing 10% fetal bovine serum and 800 μg/mL G418 (geneticin) at a culture temperature of 37° C. and a carbon dioxide concentration of 5%.
(§2) The extracellular fluid contained […], 3.5 mM KCl, 1 mM MgCl2·6H2O, 2 mM CaCl2·2H2O, 10 mM D-glucose, 10 mM HEPES, 1.25 mM NaH2PO4·2H2O, and the pH was adjusted to 7.4 with NaOH. The intracellular fluid contained 20 mM KCl, 115 mM K-Aspartic, 1 mM MgCl2·6H2O, 5 mM EGTA, 10 mM HEPES, 2 mM Na2-ATP, and the pH was adjusted to 7.2 with KOH.
(§3) The voltage stimulation protocol for recording whole-cell Kv1.X potassium currents via patch-clamp was as follows. After formation of a whole-cell seal, the cell membrane voltage was clamped at −80 mV, and then stepped to +40 mV for 500 ms. […] Then, a slow capacitance compensation was given, and the membrane capacitance and series resistance were recorded. […]
(§4) Once the whole-cell recorded Kv1.X current stabilized, drug administration was started. […] For each cell, the current detected in the compound-free extracellular liquid was used as its own control group. […]
(§5) and then the inhibition rate corresponding to each drug concentration was calculated
(§6) Subsequently, the mean, standard deviation (SD), and standard error (SE) were calculated for the inhibition rate corresponding to each concentration. […]

The target of the next assay is T2, hERG potassium channel (Homo sapiens, UniProt Q12809).
T2 construct: expressed in transfected cells
In words: Whole-cell voltage clamp assay for inhibitory activity against hERG. Conditions: CHO cells stably expressing hERG, peak tail current at -50 mV, read-out: IC50 for inhibition of hERG. The method, then:
CHO cells stably expressing hERG were cultured in 35 mm diameter cell culture dishes at 37° C. in a 5% CO2 incubator. The cells were passaged at a ratio of 1:5 every 48 h. The culture medium recipe was as follows: 90% F12 (Invitrogen), 10% fetal bovine serum (Gibco), 100 µg/mL G418 (Invitrogen), and 100 µg/mL Hygromycin B (Invitrogen). On the day of the test, the cell culture fluid was aspirated, and the cells were rinsed once with the extracellular fluid. […] The digestion solution was then aspirated, and the cells were resuspended with the extracellular fluid and transferred to an experimental dish for electrophysiological recording for later use. hERG potassium channel currents were recorded at room temperature by the whole-cell voltage clamp technique in the CHO cells stably expressing hERG potassium channels. Glass microelectrodes were formed by pulling a glass electrode blank (BF150-86-10, Sutter) using a puller. The tip resistance after perfusion with the electrode internal solution was about 2-5 MΩ. […] The clamping voltage and data recording were controlled and recorded by a computer with the pClamp software, with a sampling frequency of 10 kHz and a filtering frequency of 2 kHz. […] This voltage stimulation was applied every 5 s, and after the hERG potassium currents were determined to be stable (for 1 min), the drug administration process was started. […]
A general note: The hERG channel carries a current that helps repolarise heart muscle cells.

Another assay concerns the target Kv1.5 potassium channel (Homo sapiens, UniProt P22460). Kind of assay: Whole-cell patch-clamp assay for inhibitory activity against Kv1.5 (steady state current). Conditions: HEK293 cells stably expressing Kv1.5, patch-clamp, read-out: IC50 for inhibition of Kv1.5. The method, then: as §1, §2, §3, §4, §5, §6
On the technique in general: In patch-clamp work, channel activity is measured electrically.

The next assay concerns the target Kv1.4 potassium channel (Homo sapiens, UniProt P22459). In words: Whole-cell patch-clamp assay for inhibitory activity against Kv1.4 (peak current). Conditions: HEK293 cells stably expressing Kv1.4, patch-clamp, read-out: IC50 for inhibition of Kv1.4. The method, then: as §1, §2, §3, §4, §5, §6
For a further assay, the target named is T3, Kv1.1 potassium channel (Homo sapiens, UniProt Q09470).
T3 construct: expressed in transfected cells
In words: Whole-cell patch-clamp assay for inhibitory activity against Kv1.1 (steady state current). To be noted: HEK293 cells stably expressing Kv1.1, patch-clamp, read-out: IC50 for inhibition of Kv1.1. How it is done:
as §1, §2, §3, §4, §5, §6

The next assay concerns the target Kv1.3 potassium channel (Homo sapiens, UniProt P22001). Kind of assay: Whole-cell patch-clamp assay for inhibitory activity against Kv1.3 (peak current). To be noted: HEK293 cells stably expressing Kv1.3, patch-clamp. In outline: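 Whole-cell currents evoked by a step from −80 mV holding to +40 mV for 500 ms at room temperature. Concentrations perfused cumulatively, low to high, each for 5 min or until steady state. Peak current normalised to each cell's compound-free control; IC50 from nonlinear fit, ≥3 cells per concentration.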

Kv1.3 potassium channel, sequence (P22001 whole entry, the tested form may be a part): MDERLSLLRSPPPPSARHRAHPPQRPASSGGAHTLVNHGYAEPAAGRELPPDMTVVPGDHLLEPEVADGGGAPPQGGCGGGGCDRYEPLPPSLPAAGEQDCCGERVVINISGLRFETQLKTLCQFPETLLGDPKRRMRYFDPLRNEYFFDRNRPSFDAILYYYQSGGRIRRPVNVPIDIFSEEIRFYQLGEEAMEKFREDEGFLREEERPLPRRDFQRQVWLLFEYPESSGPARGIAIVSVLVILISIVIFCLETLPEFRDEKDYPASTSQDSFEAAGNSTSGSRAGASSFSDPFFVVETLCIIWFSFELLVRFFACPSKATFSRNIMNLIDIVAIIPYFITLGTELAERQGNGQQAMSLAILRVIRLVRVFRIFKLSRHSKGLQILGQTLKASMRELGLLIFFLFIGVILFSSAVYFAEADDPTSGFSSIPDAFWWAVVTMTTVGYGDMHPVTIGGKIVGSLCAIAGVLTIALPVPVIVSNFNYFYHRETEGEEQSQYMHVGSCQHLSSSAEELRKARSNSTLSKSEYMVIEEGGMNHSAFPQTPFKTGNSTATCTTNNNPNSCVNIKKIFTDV
T3 sequence (Q09470 whole entry): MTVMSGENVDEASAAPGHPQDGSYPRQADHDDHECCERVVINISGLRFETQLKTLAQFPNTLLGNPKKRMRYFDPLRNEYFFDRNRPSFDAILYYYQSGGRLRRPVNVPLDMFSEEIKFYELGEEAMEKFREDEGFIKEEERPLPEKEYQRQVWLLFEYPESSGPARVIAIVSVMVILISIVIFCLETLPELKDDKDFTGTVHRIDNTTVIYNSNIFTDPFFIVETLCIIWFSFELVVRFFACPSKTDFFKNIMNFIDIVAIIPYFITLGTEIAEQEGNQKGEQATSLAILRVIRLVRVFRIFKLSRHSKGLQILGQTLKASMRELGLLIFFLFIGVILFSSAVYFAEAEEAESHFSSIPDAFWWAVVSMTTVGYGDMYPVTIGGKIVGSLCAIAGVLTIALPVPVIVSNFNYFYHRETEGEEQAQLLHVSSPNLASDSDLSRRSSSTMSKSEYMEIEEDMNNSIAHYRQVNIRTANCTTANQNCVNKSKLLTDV
Kv1.4 potassium channel, sequence (P22459 whole entry): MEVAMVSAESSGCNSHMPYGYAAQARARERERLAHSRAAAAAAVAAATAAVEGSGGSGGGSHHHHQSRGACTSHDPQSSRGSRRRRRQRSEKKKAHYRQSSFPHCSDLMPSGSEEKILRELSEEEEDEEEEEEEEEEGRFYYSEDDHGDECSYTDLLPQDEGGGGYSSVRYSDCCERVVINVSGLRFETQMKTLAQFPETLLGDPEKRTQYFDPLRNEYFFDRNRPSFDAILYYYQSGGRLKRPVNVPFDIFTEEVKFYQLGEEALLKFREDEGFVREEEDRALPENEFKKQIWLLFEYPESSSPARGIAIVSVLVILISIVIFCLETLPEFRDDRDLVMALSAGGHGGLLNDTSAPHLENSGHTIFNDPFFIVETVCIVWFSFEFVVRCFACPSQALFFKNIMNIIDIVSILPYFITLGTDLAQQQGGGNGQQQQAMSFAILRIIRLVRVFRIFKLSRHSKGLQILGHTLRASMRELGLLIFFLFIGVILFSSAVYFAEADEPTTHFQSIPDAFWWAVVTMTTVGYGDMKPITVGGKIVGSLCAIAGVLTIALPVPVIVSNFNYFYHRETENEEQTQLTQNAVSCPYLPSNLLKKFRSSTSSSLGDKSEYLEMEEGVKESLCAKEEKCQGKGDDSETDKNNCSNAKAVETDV
T1 sequence (P16389 whole entry): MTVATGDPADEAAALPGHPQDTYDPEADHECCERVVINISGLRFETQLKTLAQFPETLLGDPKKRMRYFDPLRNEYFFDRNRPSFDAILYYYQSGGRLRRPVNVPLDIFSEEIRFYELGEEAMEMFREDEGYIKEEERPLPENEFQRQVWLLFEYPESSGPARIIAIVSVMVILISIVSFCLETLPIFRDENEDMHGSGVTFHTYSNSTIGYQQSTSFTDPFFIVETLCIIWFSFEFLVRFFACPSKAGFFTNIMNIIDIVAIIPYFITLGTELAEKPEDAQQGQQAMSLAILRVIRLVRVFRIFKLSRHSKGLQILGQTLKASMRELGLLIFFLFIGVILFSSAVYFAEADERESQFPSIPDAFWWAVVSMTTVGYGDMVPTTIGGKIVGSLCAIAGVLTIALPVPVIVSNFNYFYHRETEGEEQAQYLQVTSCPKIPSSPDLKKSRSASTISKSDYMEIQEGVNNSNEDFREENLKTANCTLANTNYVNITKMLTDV
Kv1.5 potassium channel, sequence (P22460 whole entry): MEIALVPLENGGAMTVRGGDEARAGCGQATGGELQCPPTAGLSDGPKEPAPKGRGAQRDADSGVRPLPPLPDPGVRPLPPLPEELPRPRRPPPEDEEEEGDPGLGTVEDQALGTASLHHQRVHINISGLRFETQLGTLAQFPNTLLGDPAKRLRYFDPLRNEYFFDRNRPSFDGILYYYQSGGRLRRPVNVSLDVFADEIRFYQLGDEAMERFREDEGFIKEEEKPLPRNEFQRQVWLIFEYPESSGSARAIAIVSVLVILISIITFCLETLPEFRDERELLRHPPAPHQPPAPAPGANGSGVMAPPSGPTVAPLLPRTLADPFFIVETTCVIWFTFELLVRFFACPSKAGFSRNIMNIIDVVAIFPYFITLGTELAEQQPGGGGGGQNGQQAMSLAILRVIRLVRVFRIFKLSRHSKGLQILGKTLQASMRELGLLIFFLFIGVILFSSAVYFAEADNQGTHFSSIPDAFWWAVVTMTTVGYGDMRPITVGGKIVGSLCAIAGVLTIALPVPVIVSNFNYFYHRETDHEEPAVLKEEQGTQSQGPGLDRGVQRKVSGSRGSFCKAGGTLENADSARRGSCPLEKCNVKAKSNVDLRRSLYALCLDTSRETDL
T2 sequence (Q12809 whole entry): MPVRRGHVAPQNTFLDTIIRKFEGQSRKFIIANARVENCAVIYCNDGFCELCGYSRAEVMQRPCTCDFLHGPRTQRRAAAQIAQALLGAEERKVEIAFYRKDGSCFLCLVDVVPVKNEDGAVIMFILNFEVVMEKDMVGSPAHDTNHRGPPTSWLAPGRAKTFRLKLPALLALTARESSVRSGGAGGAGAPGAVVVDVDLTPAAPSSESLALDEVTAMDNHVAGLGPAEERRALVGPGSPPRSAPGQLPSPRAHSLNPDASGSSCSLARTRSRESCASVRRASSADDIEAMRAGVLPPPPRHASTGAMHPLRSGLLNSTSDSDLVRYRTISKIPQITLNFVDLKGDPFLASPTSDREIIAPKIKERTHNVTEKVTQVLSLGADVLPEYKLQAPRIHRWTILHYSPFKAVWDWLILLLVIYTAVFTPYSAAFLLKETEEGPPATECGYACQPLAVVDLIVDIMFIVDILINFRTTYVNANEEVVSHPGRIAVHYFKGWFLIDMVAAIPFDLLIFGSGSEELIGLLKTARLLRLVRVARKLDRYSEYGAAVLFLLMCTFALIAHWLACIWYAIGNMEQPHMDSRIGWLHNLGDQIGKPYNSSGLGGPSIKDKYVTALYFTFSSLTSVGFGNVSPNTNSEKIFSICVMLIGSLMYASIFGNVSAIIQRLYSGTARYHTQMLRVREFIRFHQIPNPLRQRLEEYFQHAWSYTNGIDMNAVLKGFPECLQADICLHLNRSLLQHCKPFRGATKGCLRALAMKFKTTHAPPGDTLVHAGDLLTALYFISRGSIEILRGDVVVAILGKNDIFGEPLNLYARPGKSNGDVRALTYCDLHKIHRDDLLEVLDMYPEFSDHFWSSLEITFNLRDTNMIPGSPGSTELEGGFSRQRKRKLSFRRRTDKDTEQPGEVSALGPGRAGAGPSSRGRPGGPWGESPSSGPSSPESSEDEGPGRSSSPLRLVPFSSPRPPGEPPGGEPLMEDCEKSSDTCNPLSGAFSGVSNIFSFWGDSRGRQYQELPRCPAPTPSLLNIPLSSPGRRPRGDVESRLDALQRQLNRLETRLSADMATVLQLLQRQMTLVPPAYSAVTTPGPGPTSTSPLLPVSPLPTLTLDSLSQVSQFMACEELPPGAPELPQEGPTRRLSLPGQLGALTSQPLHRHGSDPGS

As usually defined, the IC50 is the point on the concentration scale where inhibition reaches its midpoint. For the compound `OCc1nnc2n1C[C@H](c1c(O)ccc(Cl)c1Cl)C2` [Example 2, (S)-3,4-dichloro-2-(3-(hydroxymethyl)-6,7-dihydro-5H-pyrrolo[2,1-c][1,2,4]triazol-6-yl)phenol], the IC50 on Kv1.2 potassium channel is more than 100000 nM; on hERG potassium channel, more than 30000 nM; at Kv1.5 potassium channel it was more than 100000 nM; on Kv1.4 potassium channel it was more than 30000 nM; at Kv1.1 potassium channel, more than 100000 nM; against Kv1.3 potassium channel it was 28.1 nM.
In the case of `Oc1ccc(Cl)c(Cl)c1[C@@H]1Cc2nnc([C@@H]3CCOC3)n2C1` [Example 54, 3,4-Dichloro-2-((S)-3-((S)-tetrahydrofuran-3-yl)-6,7-dihydro-5H-pyrrolo[2,1-c][1,2,4]triazol-6-yl)phenol], the IC50 on Kv1.2 potassium channel is more than 100000 nM; on hERG potassium channel, more than 30000 nM; at Kv1.5 potassium channel it was more than 100000 nM; on Kv1.4 potassium channel, more than 30000 nM; on Kv1.1 potassium channel it was more than 100000 nM; against Kv1.3 potassium channel, 7.7 nM.
On Kv1.3 potassium channel, `O=C1CC(c2nnc3n2C[C@H](c2c(O)ccc(Cl)c2Cl)C3)CN1` (single isomer, unassigned) [Example 53] displayed an IC50 of 15 nM.
The compound `O=c1n(C2CCNCC2)nc2n1CC(c1c(O)ccc(Cl)c1Cl)C2` (stereo not drawn) [Example 105, 6-(2,3-Dichloro-6-hydroxyphenyl)-2-(piperidin-4-yl)-2,5,6,7-tetrahydro-3H-pyrrolo[2,1-c][1,2,4]triazol-3-one] showed an IC50 at Kv1.3 potassium channel of 5.93 nM.
Still for that read-out and setting: with `Oc1ccc(Cl)c(Cl)c1[C@@H]1Cc2nnc(-c3cn[nH]c3)n2C1` [Example 46, (S)-2-(3-(1H-Pyrazol-4-yl)-6,7-dihydro-5H-pyrrolo[2,1-c][1,2,4]triazol-6-yl)-3,4-dichlorophenol] the figure was 5.12 nM; with `C[C@]1(c2nnc3n2C[C@H](c2c(O)ccc(Cl)c2Cl)C3)CCOC1` [Example 65, 3,4-dichloro-2-((S)-3-((R)-3-methyltetrahydrofuran-3-yl)-6,7-dihydro-5H-pyrrolo[2,1-c][1,2,4]triazol-6-yl)phenol], 51.7 nM.
On the same count and under the same terms, with `Oc1ccc(Cl)c(Cl)c1[C@@H]1Cc2nnc([C@@H]3CCCOC3)n2C1` [Example 68, 3,4-Dichloro-2-((S)-3-((S)-tetrahydro-2H-pyran-3-yl)-6,7-dihydro-5H-pyrrolo[2,1-c][1,2,4]triazol-6-yl)phenol] the figure was 16 nM.
Still for that read-out and setting: with `Oc1ccc(Cl)c(Cl)c1C1Cc2nnc(C(F)F)n2C1` (stereo not drawn) [Example 25, 3,4-Dichloro-2-(3-(difluoromethyl)-6,7-dihydro-5H-pyrrolo[2,1-c][1,2,4]triazol-6-yl)phenol] the figure was 11.1 nM; with `Oc1ccc(Cl)c(Cl)c1[C@@H]1Cc2nnc(C(F)(F)F)n2C1` [Example 86, (S)-3,4-Dichloro-2-(3-(trifluoromethyl)-6,7-dihydro-5H-pyrrolo[2,1-c][1,2,4]triazol-6-yl)phenol], 25 nM; with `CC(F)(F)c1nnc2n1C[C@H](c1c(O)ccc(Cl)c1Cl)C2` [Example 85, (S)-3,4-Dichloro-2-(3-(1,1-difluoroethyl)-6,7-dihydro-5H-pyrrolo[2,1-c][1,2,4]triazol-6-yl)phenol], 24.5 nM.
In turn, `Oc1ccc(Cl)c(Cl)c1C1Cc2nnc(CC(F)(F)F)n2C1` (stereo not drawn) [Example 15, 3,4-Dichloro-2-(3-(2,2,2-trifluoroethyl)-6,7-dihydro-5H-pyrrolo[2,1-c][1,2,4]triazol-6-yl)phenol] displayed a half-inhibitory concentration (IC50) at Kv1.3 potassium channel of 26.8 nM.
The same measure, in the same setting: in the case of `CCc1nn(C)c2c1C[C@@H](c1c(O)ccc(Cl)c1Cl)C2` [Example 116, (R)-3,4-dichloro-2-(3-ethyl-1-methyl-1,4,5,6-tetrahydrocyclopenta[c]pyrazol-5-yl)phenol] it was 44.1 nM; in that of `CCn1nc2n(c1=O)C[C@H](c1c(O)ccc(Cl)c1Cl)C2` [Example 106, (S)-6-(2,3-Dichloro-6-hydroxyphenyl)-2-ethyl-2,5,6,7-tetrahydro-3H-pyrrolo[2,1-c][1,2,4]triazol-3-one], 29.8 nM.
For `O=C(c1nnc2n1CC(c1c(O)ccc(Cl)c1Cl)C2)N1CCOCC1` (stereo not drawn) [Example 21, (6-(2,3-Dichloro-6-hydroxyphenyl)-6,7-dihydro-5H-pyrrolo[2,1-c][1,2,4]triazol-3-yl)(morpholino)methanone], inhibition against Kv1.3 potassium channel was half-maximal at 48.6 nM (IC50).
On the same count and under the same terms, with `Nc1ccc(-c2nnc3n2C[C@H](c2c(O)ccc(Cl)c2Cl)C3)cn1` [Example 42, (S)-2-(3-(6-Aminopyridin-3-yl)-6,7-dihydro-5H-pyrrolo[2,1-c][1,2,4]triazol-6-yl)-3,4-dichlorophenol] the figure was 13 nM; with `Oc1ccc(Cl)c(Cl)c1[C@@H]1Cc2nnc(C3CCNCC3)n2C1` [Example 35, (S)-3,4-Dichloro-2-(3-(piperidin-4-yl)-6,7-dihydro-5H-pyrrolo[2,1-c][1,2,4]triazol-6-yl)phenol], 3.15 nM.
Still for that read-out and setting: with `Oc1ccc(Cl)c(Cl)c1[C@@H]1Cc2nnc([C@]34COCC3C4)n2C1` (stereo partly drawn) [Example 73, 2-((6S)-3-((1R)-3-oxabicyclo[3.1.0]hexan-1-yl)-6,7-dihydro-5H-pyrrolo[2,1-c][1,2,4]triazol-6-yl)-3,4-dichlorophenol] the figure was 24.7 nM.

These data come from patent publication US20260224536A1, “ARYL HETEROCYCLIC KV1.3 INHIBITOR, PREPARATION METHOD THEREFOR, AND USE THEREOF” (SHANGHAI SHENSHI WISE TECHNOLOGY CO., LTD., priority 2022, published 2026).
